In PubChem BioAssay AID1900 (Broad Institute, 2009):
“And” between values parts separate entries of the source, which are not always exact repeats. Equal values may be shown once.

Test system: SK(-)GAS Streptococcus pyogenes + kanamycin, BacTiterGlo viability, 6 h
Test: growth inhibition of control SK(-) GAS strain, dose response, counter-screen for streptokinase expression inhibitor project, luminescence, kanamycin, BacTiterGlo, confirmation (AID 1900)

SMILES	EC50
CNC(CC(C)C)C(=O)NC1C(=O)NC(CC(N)=O)C(=O)NC2C(=O)NC3C(=O)NC(C(=O)NC(C(=O)O)c4cc(O)cc(O)c4-c4cc3ccc4O)C(O)c3ccc(c(Cl)c3)Oc3cc2cc(c3OC2OC(CO)C(O)C(O)C2OC2CC(C)(N)C(O)C(C)O2)Oc2ccc(cc2Cl)C1O (configuration not stated)	211 nM
CN(C)c1ccnc2c[cH-]cc12.[Fe].c1ccc(-[c-]2[c-](-c3ccccc3)[c-](-c3ccccc3)[c-](-c3ccccc3)[c-]2-c2ccccc2)cc1 (configuration not stated)	989 nM and 334 nM
